Like-named read-outs stand apart in the source and are kept apart here.
Key:
Format in all cases: in vivo
Phytophthora infestans = conditions: for Test D disease control rating (100 = 100% disease control, 0 = no disease control): rating relative to controls; for Test D disease control rating: tomato late blight, 100 = 100% disease control, 0 = no control, unmarked entries (standard test concentration)
Botrytis cinerea = experiment: Test E: gray mold, preventive spray on cucumber seedlings; conditions: for Test E disease control rating (100 = 100% disease control, 0 = no disease control): rating relative to controls; for Test E disease control rating: gray mold on cucumber, 100 = 100% disease control, 0 = no control, unmarked entries (standard test concentration)
In short: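 Preventive spray on cucumber seedlings used a suspension (3% acetone, 250 ppm Trem 014), applied to run-off one day before inoculation with Botrytis cinerea spores. Plants were held 48 h at 20° C in saturated air, then 5 days at 20° C. Percent disease control was scored relative to untreated plants.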

[1] = system: Eiysiphe graminis f. sp. tritici; experiment: Test A: wheat powdery mildew, preventive spray on wheat seedlings; conditions: for Test A disease control rating (100 = 100% disease control, 0 = no disease control): rating relative to controls; for Test A disease control rating: wheat powdery mildew, 100 = 100% disease control, 0 = no control relative to controls, unmarked entries (standard test concentration)
In short: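 Preventive test: seedlings inoculated with powdery mildew spores one day after run-off spraying of a suspension. Ratings after 7 days in a 20° C growth chamber express percent disease control versus controls.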

Pyricularia oryzae = conditions: for Test C disease control rating (100 = 100% disease control, 0 = no disease control): rating relative to controls; for Test C disease control rating: rice blast, 100 = 100% disease control, 0 = no control, unmarked entries (standard test concentration)
Puccinia recondita = experiment: Test B: wheat leaf rust, preventive spray on wheat seedlings; conditions: for Test B disease control rating (100 = 100% disease control, 0 = no disease control): rating relative to controls; for Test B disease control rating: wheat leaf rust, 100 = 100% disease control, 0 = no control, unmarked entries (standard test concentration)
In short: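 Preventive test: P. recondita spores were applied one day after a run-off spray of compound suspension on wheat seedlings. Plants had 24 h at 20 °C in saturated air plus 6 days in a 20 °C growth chamber. Scoring is % disease control (100 = full) relative to controls.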

[2] = tomato seedlings sprayed to run-off, inoculated the following day, unmarked compounds (standard test rate)
[3] = cucumber seedlings sprayed to run-off, inoculated the following day, unmarked compounds (standard test rate)
[4] = wheat seedlings sprayed to run-off, inoculated the following day, unmarked compounds (standard test rate)
[5] = rice seedlings sprayed to run-off, inoculated the following day, unmarked compounds (standard test rate)
[6] = tested at 40 ppm, wheat seedlings

CC(C=Cc1ccccc1)NC(=O)C(C#N)C(C)(C)C (mixture of isomers) [compound 228]
Test D disease control rating (100 = 100% disease control, 0 = no disease control) (Phytophthora infestans; [2]): 7% | Test E disease control rating (100 = 100% disease control, 0 = no disease control) (Botrytis cinerea; [3]): 47% | Test A disease control rating (100 = 100% disease control, 0 = no disease control) [1, 4]: 95% | Test C disease control rating (100 = 100% disease control, 0 = no disease control) (Pyricularia oryzae; [5]): 52% | Test B disease control rating (100 = 100% disease control, 0 = no disease control) (Puccinia recondita; [4]): 0%

CCC1(C(=O)NC(C)COn2c(C)cc(C)c2C#N)C(C)C1(Cl)Cl (mixture of isomers) [compound 136]
Test D disease control rating (Phytophthora infestans): 0% | Test E disease control rating (Botrytis cinerea): 0% | Test A disease control rating [1]: 34% | Test C disease control rating (Pyricularia oryzae): 78% | Test B disease control rating (Puccinia recondita): 0%

CC(COc1c(F)cccc1C#N)NC(=O)C(C#N)C(C)C(C)(C)C (mixture of isomers) [compound 67]
Test D disease control rating (Phytophthora infestans): 92% | Test E disease control rating (Botrytis cinerea): 0% | Test A disease control rating [1]: 0% | Test C disease control rating (Pyricularia oryzae): 0% | Test B disease control rating (Puccinia recondita): 0%

CCC1(C(=O)NCCCc2ccccc2)C(C)C1(Cl)Cl (stereo not drawn) [compound 155]
Test D disease control rating (Phytophthora infestans): 23% | Test E disease control rating (Botrytis cinerea): 0% | Test A disease control rating [1]: 71% | Test C disease control rating (Pyricularia oryzae): 86% | Test B disease control rating (Puccinia recondita): 0%

C[C@H](COc1ccc(Cl)cc1F)NC(=O)C(C#N)C(C)(C)C (single isomer, unassigned) [36b]
Test D disease control rating (Phytophthora infestans): 80% | Test E disease control rating (Botrytis cinerea): 0% | Test A disease control rating [1]: 62% | Test C disease control rating (Pyricularia oryzae): 100% | Test B disease control rating (Puccinia recondita): 27%

CC(COc1ccc(F)cc1C#N)NC(=O)C(C#N)C(C)(C)C (mixture of isomers) [compound 40]
Test D disease control rating (Phytophthora infestans): 0% | Test E disease control rating (Botrytis cinerea): 0% | Test A disease control rating [1]: 21% | Test C disease control rating (Pyricularia oryzae): 86% | Test B disease control rating (Puccinia recondita): 0%

C[C@H](COc1ccc(F)cc1F)NC(=O)C(C#N)C(C)(C)C (single isomer, unassigned) [27b]
Test D disease control rating (Phytophthora infestans): 0% | Test E disease control rating (Botrytis cinerea): 0% | Test A disease control rating [1]: 91% | Test C disease control rating (Pyricularia oryzae): 100% | Test B disease control rating (Puccinia recondita): 0%

CCC1(C(=O)NC(C)COc2ccccc2Cl)C(C)C1(Cl)Cl (mixture of isomers) [81a]
Test D disease control rating (Phytophthora infestans): 0% | Test E disease control rating (Botrytis cinerea): 55% | Test A disease control rating [1]: 0% | Test C disease control rating (Pyricularia oryzae): 0% | Test B disease control rating (Puccinia recondita): 0%

C[C@H](COc1cccc(Br)c1)NC(=O)C(C#N)C(C)(C)C (single isomer, unassigned) [9b]
Test D disease control rating (Phytophthora infestans): 28% | Test E disease control rating (Botrytis cinerea): 0% | Test A disease control rating [1]: 62% | Test C disease control rating (Pyricularia oryzae): 99% | Test B disease control rating (Puccinia recondita): 68%

C[C@H](COc1cc(F)cc(F)c1F)NC(=O)C(C#N)C(C)(C)C (single isomer, unassigned) [168a]
Test D disease control rating (Phytophthora infestans): 0% | Test E disease control rating (Botrytis cinerea): 58% | Test A disease control rating [1]: 76% | Test C disease control rating (Pyricularia oryzae): 74% | Test B disease control rating (Puccinia recondita): 0%

CC(COc1ccc(Br)cc1)NC(=O)C(C#N)C(C)(C)C (single isomer, unassigned) [10b]
Test D disease control rating (Phytophthora infestans): 95% | Test E disease control rating (Botrytis cinerea): 0% | Test A disease control rating [1]: 62% | Test C disease control rating (Pyricularia oryzae): 86% | Test B disease control rating (Puccinia recondita): 67%

CC(COc1c(C#N)cccc1C(F)(F)F)NC(=O)C(C#N)C(C)C(C)(C)C (mixture of isomers) [compound 68]
Test D disease control rating (Phytophthora infestans): 82% | Test E disease control rating (Botrytis cinerea): 0% | Test A disease control rating [1]: 62% | Test C disease control rating (Pyricularia oryzae): 86% | Test B disease control rating (Puccinia recondita): 27%

CC(COc1cc(F)ccc1Cl)NC(=O)C(C#N)C(C)(C)C=CF (mixture of isomers) [compound 222]
Test D disease control rating (100 = 100% disease control, 0 = no disease control) (Phytophthora infestans; [2]): 41% | Test E disease control rating (100 = 100% disease control, 0 = no disease control) (Botrytis cinerea; [3]): 0% | Test A disease control rating (100 = 100% disease control, 0 = no disease control) [1, 4]: 62% | Test C disease control rating (100 = 100% disease control, 0 = no disease control) (Pyricularia oryzae; [5]): 100% | Test B disease control rating (100 = 100% disease control, 0 = no disease control) (Puccinia recondita; [4]): 28%

CC(CCn1cc(Cl)cc1C#N)NC(=O)C(C#N)C(C)(C)C (mixture of isomers) [compound 53]
Test D disease control rating (Phytophthora infestans): 0% | Test E disease control rating (Botrytis cinerea): 0% | Test A disease control rating [1]: 0% | Test C disease control rating (Pyricularia oryzae): 53% | Test B disease control rating (Puccinia recondita): 0%

C#Cc1ccccc1OCC(C)NC(=O)C(C#N)C(C)(C)C (mixture of isomers) [compound 216]
Test D disease control rating (100 = 100% disease control, 0 = no disease control) (Phytophthora infestans; [2]): 9% | Test E disease control rating (100 = 100% disease control, 0 = no disease control) (Botrytis cinerea; [3]): 45% | Test A disease control rating (100 = 100% disease control, 0 = no disease control) [1, 4]: 0% | Test C disease control rating (100 = 100% disease control, 0 = no disease control) (Pyricularia oryzae; [5]): 99% | Test B disease control rating (100 = 100% disease control, 0 = no disease control) (Puccinia recondita; [4]): 0%

CC(COc1cc(OC(F)F)ccc1C#N)NC(=O)C(C#N)C(C)C(C)(C)C (mixture of isomers) [compound 277]
Test D disease control rating (100 = 100% disease control, 0 = no disease control) (Phytophthora infestans; [2]): 0% | Test E disease control rating (100 = 100% disease control, 0 = no disease control) (Botrytis cinerea; [3]): 0% | Test A disease control rating (100 = 100% disease control, 0 = no disease control) [1, 4]: 0% | Test C disease control rating (100 = 100% disease control, 0 = no disease control) (Pyricularia oryzae; [5]): 0% | Test B disease control rating (100 = 100% disease control, 0 = no disease control) (Puccinia recondita; [4]): 0%

CCC1(C(=O)NC(C)COc2cc(F)cc(F)c2Cl)C(C)C1(Cl)Cl (stereo not drawn) [compound 318]
Test D disease control rating (100 = 100% disease control, 0 = no disease control) (Phytophthora infestans; tested at 40 ppm, tomato seedlings): 0% | Test E disease control rating (100 = 100% disease control, 0 = no disease control) (Botrytis cinerea; tested at 40 ppm, cucumber seedlings): 0% | Test A disease control rating (100 = 100% disease control, 0 = no disease control) [1, 6]: 90% | Test C disease control rating (100 = 100% disease control, 0 = no disease control) (Pyricularia oryzae; tested at 40 ppm, rice seedlings): 53% | Test B disease control rating (100 = 100% disease control, 0 = no disease control) (Puccinia recondita; [6]): 0%

C[C@H](COc1ccc(Cl)c(Cl)c1)NC(=O)C(C#N)C(C)(C)C (single isomer, unassigned) [181b]
Test D disease control rating (Phytophthora infestans): 0% | Test E disease control rating (Botrytis cinerea): 90% | Test A disease control rating [1]: 37% | Test C disease control rating (Pyricularia oryzae): 74% | Test B disease control rating (Puccinia recondita): 0%
